16 compounds from US9399646B2 (Genentech, Inc., priority 2010, dated 2016) can be followed below.

One assay concerns MCF-7 cells. Put plainly: Breast cancer cell viability assay (CellTiter-Glo, 5 days). The settings on record: 5 days' compound exposure; for IC50: Homo sapiens, MCF7, 120 h. The class given is cell-based. Put shortly:
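MCF-7 cells, 320 per well in RPMI with 10% FBS and 20 mM HEPES, adhered overnight, then exposed 5 days to an eleven-point semilog dilution (final 0.3-0.000003 μM). CellTiter-Glo luminescence read; % viability = (sample − cell-free background)/(untreated − background) × 100.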
For orientation: Cellular ATP, detected with luciferase, serves as a proxy for viable cell number.

The target in another assay is T1, ER-α in MCF-7 cells (Homo sapiens, UniProt P03372).
T1 sequence (P03372 1-595): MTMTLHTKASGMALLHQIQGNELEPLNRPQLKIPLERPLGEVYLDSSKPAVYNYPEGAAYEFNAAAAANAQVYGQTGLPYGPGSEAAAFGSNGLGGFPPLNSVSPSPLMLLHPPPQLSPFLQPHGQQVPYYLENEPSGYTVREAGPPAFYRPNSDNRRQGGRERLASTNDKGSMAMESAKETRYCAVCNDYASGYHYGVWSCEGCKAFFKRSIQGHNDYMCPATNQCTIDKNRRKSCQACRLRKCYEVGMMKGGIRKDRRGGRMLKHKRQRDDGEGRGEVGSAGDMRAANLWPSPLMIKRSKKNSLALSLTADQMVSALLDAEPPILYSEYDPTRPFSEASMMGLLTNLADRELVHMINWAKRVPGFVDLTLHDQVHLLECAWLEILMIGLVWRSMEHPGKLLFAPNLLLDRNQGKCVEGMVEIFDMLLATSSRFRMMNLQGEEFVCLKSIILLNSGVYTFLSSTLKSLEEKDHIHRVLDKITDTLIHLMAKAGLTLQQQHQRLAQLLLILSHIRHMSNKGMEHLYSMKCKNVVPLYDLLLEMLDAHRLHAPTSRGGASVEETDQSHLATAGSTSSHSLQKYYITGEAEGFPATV
Put plainly: Breast cancer cell ER-α in cell western assay (SP1). The format is cell-based. On the set-up: endogenous in cells; host or cells: MCF-7. The settings on record: 4 or 24 hr post compound addition; for Emax: MCF7, SP1 antibody, read-out: ER-α In Cell Western Assay (SP1) Max Response; for DC50: SP1 antibody, read-out: ER-α In Cell Western Assay (SP1) IC50. Put shortly: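 ER-α protein levels were measured in MCF-7 cells after 4 or 24 hr compound exposure (final 0.3–0.000003 μM) in RPMI containing 10% charcoal-stripped FBS.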

One may read the IC50 as the concentration that inhibits the measured activity by half. A higher IC50 goes with weaker potency.

Take `CC/C(=C(/c1ccc(/C=C/C(=O)NC)cc1)c1ccc2[nH]ncc2c1)c1ccc(F)cc1Cl` [Compound 420, (E)-3-(4-((E)-2-(2-Chloro-4-fluorophenyl)-1-(1H-indazol-5-yl)but-1-en-1-yl)phenyl)-N-methylacrylamide]: in the assay with MCF-7 cells, the “MCF7 Viability Assay Max Response” value was “++ (++ = a single % value ≧ 40%)” and the IC50 is at most 100 nM. On ER-α in MCF-7 cells, the Emax is at least 40% and the DC50 was at most 100 nM.

Turning to `CCCCCOc1ccc(/C(CC)=C(\c2ccc(/C=C/C(=O)O)cc2)c2ccc3[nH]ncc3c2)cc1` [Compound 356, (E)-3-(4-((E)-1-(1H-Indazol-5-yl)-2-(4-(pentyloxy)phenyl)but-1-en-1-yl)phenyl)acrylic acid], in the assay on MCF-7 cells, the “MCF7 Viability Assay Max Response” value is “++ (++ = a single % value ≧ 40%)” and the IC50 was above 100 nM. Besides, on ER-α in MCF-7 cells, the Emax was at least 40% and the DC50 is at most 100 nM.

`CC/C(=C(/c1ccc(/C=C/C(=O)O)cc1)c1ccc2[nH]ncc2c1)c1cccc(Oc2ccncn2)c1` [Compound 364, (E)-3-(4-((E)-1-(1H-Indazol-5-yl)-2-(3-(pyrimidin-4-yloxy)phenyl)but-1-en-1-yl)phenyl)acrylic acid]: in the assay on MCF-7 cells, the “MCF7 Viability Assay Max Response” value is on record as “++ (++ = a single % value ≧ 40%)” and the IC50 was at most 100 nM. On ER-α in MCF-7 cells, the Emax was at least 40% and the DC50 is at most 100 nM.

Consider `CC/C(=C(/c1ccc(/C=C/C(=O)O)cc1)c1ccc2[nH]ncc2c1F)c1cccc(OC2CCCCC2)c1` [Compound 345, (E)-3-(4-((E)-2-(3-(Cyclohexyloxy)phenyl)-1-(4-fluoro-1H-indazol-5-yl)but-1-en-1-yl)phenyl)acrylic acid], for which, in the assay with MCF-7 cells, the “MCF7 Viability Assay Max Response” value was “++ (++ = a single % value ≧ 40%)” and the IC50 is at most 100 nM. At ER-α in MCF-7 cells, the Emax is at least 40% and the DC50 was at most 100 nM.

Turning to `CC/C(=C(/c1ccc(/C=C/C(=O)O)cc1)c1ccc2[nH]ncc2c1)c1cccc2ccccc12` [Compound 50, (E)-3-(4-((E)-1-(1H-Indazol-5-yl)-2-(naphthalen-1-yl)but-1-en-1-yl)phenyl)acrylic acid], in the assay with MCF-7 cells, the “MCF7 Viability Assay Max Response” value is “++ (++ = a single % value ≧ 40%)” and the IC50 was at most 100 nM. Moreover, at ER-α in MCF-7 cells, the Emax is at least 40% and the DC50 is at most 100 nM.

Take `CC/C(=C(/c1ccc(/C=C/C(=O)O)cc1)c1ccc2[nH]ncc2c1)c1cccc(OCCCC(=O)O)c1` [Compound 351, 4-(3-((E)-1-(4-((E)-2-Carboxyvinyl)phenyl)-1-(1H-indazol-5-yl)but-1-en-2-yl)phenoxy)butanoic acid]: in the assay on MCF-7 cells, the “MCF7 Viability Assay Max Response” value was “+ (+ = a single % value < 40%)” and the IC50 was above 100 nM. Also, on ER-α in MCF-7 cells, the Emax is at least 40% and the DC50 was above 100 nM.

Turning to `CC/C(=C(/c1ccc(/C=C/C(=O)O)cc1)c1ccc2[nH]ncc2c1)c1ccc(-c2ccsc2)cc1` [Compound 386, (E)-3-(4-((E)-1-(1H-Indazol-5-yl)-2-(4-(thiophen-3-yl)phenyl)but-1-en-1-yl)phenyl)acrylic acid], in the assay with MCF-7 cells, the “MCF7 Viability Assay Max Response” value is listed as “++ (++ = a single % value ≧ 40%)” and the IC50 is above 100 nM. Further, on ER-α in MCF-7 cells, the Emax is at least 40% and the DC50 is at most 100 nM.

In the case of `CC/C(=C(/c1ccc(/C=C/C(=O)O)cc1)c1coc2ccccc12)c1ccc(F)cc1Cl` [Compound 170, (E)-3-(4-((E)-1-(Benzofuran-3-yl)-2-(2-chloro-4-fluorophenyl)but-1-en-1-yl)phenyl)acrylic acid], in the assay with MCF-7 cells, the “MCF7 Viability Assay Max Response” value is “++ (++ = a single % value ≧ 40%)” and the IC50 is at most 100 nM. Further, on ER-α in MCF-7 cells, the Emax is at least 40% and the DC50 is at most 100 nM.

For the compound `CC/C(=C(/c1ccc(/C=C/C(=O)O)cc1)c1ccc2[nH]ncc2c1)c1cccc(Oc2cnccn2)c1` [Compound 371, (E)-3-(4-((E)-1-(1H-Indazol-5-yl)-2-(3-(pyrazin-2-yloxy)phenyl)but-1-en-1-yl)phenyl)acrylic acid], in the assay with MCF-7 cells, the “MCF7 Viability Assay Max Response” value is “++ (++ = a single % value ≧ 40%)” and the IC50 is at most 100 nM. Besides, at ER-α in MCF-7 cells, the Emax was at least 40% and the DC50 is at most 100 nM.

Consider `CC/C(=C(/c1ccc(/C=C/C(=O)O)cc1)c1ccc2[nH]ncc2c1)c1cccc(OCc2cccnc2)c1` [Compound 359, (E)-3-(4-((E)-1-(1H-Indazol-5-yl)-2-(3-(pyridin-3-ylmethoxy)phenyl)but-1-en-1-yl)phenyl)acrylic acid], for which, in the assay with MCF-7 cells, the “MCF7 Viability Assay Max Response” value is listed as “++ (++ = a single % value ≧ 40%)” and the IC50 was at most 100 nM. At ER-α in MCF-7 cells, the Emax is at least 40% and the DC50 was at most 100 nM.

Consider `CC/C(=C(/c1ccc(/C=C/C(=O)O)cc1)c1ccc2[nH]ncc2c1)c1sccc1C` [Compound 241, (E)-3-(4-((E)-1-(1H-Indazol-5-yl)-2-(3-methylthiophen-2-yl)but-1-en-1-yl)phenyl)acrylic acid], for which, in the assay on MCF-7 cells, the “MCF7 Viability Assay Max Response” value is “++ (++ = a single % value ≧ 40%)” and the IC50 was at most 100 nM. On ER-α in MCF-7 cells, the Emax was at least 40% and the DC50 was at most 100 nM.

`CC/C(=C(/c1ccc(/C=C/C(=O)O)cc1)c1cnn2ccccc12)c1ccccc1` [Compound 148, (E)-3-(4-((E)-2-Phenyl-1-(pyrazolo[1,5-a]pyridin-3-yl)but-1-en-1-yl)phenyl)acrylic acid]: in the assay on MCF-7 cells, the “MCF7 Viability Assay Max Response” value is on record as “++ (++ = a single % value ≧ 40%)” and the IC50 is above 100 nM. For the same compound, on ER-α in MCF-7 cells, the Emax is at least 40% and the DC50 was above 100 nM.

As for `CC/C(=C(/c1ccc(/C=C/C(=O)O)cc1)c1ccc2sncc2c1)c1ccccc1` [Compound 156, (E)-3-(4-((E)-1-(Benzo[d]isothiazol-5-yl)-2-phenylbut-1-en-1-yl)phenyl)acrylic acid], in the assay on MCF-7 cells, the “MCF7 Viability Assay Max Response” value was “++ (++ = a single % value ≧ 40%)” and the IC50 was above 100 nM. On ER-α in MCF-7 cells, the Emax is at least 40% and the DC50 was above 100 nM.

With `CC/C(=C(/c1ccc(/C=C/C(=O)O)cc1)c1ccc2c(c1)COC(=O)N2)c1ccccc1` [Compound 101, (E)-3-(4-((E)-1-(2-Oxo-2,4-dihydro-1H-benzo[d][1,3]oxazin-6-yl)-2-phenylbut-1-en-1-yl)phenyl)acrylic acid], in the assay on MCF-7 cells, the “MCF7 Viability Assay Max Response” value is reported as “++ (++ = a single % value ≧ 40%)” and the IC50 was above 100 nM. In addition, on ER-α in MCF-7 cells, the Emax is at least 40% and the DC50 was above 100 nM.

As to `CC/C(=C(/c1ccc(/C=C/C(=O)O)cc1)c1ccc2[nH]ncc2c1)c1ccc(-c2cnccn2)cc1` [Compound 389, (E)-3-(4-((E)-1-(1H-Indazol-5-yl)-2-(4-(pyrazin-2-yl)phenyl)but-1-en-1-yl)phenyl)acrylic acid], in the assay with MCF-7 cells, the “MCF7 Viability Assay Max Response” value was “++ (++ = a single % value ≧ 40%)” and the IC50 is above 100 nM. At ER-α in MCF-7 cells, the Emax was at least 40% and the DC50 was at most 100 nM.

With `CC/C(=C(/c1ccc(/C=C/C(=O)O)cc1)c1ccc2[nH]ncc2c1)c1cccc(Oc2nccs2)c1` [Compound 370, (E)-3-(4-((E)-1-(1H-Indazol-5-yl)-2-(3-(thiazol-2-yloxy)phenyl)but-1-en-1-yl)phenyl)acrylic acid], in the assay on MCF-7 cells, the “MCF7 Viability Assay Max Response” value is “++ (++ = a single % value ≧ 40%)” and the IC50 is at most 100 nM. Also, on ER-α in MCF-7 cells, the Emax was at least 40% and the DC50 was at most 100 nM.
